Measured values reported in patent US12157730B2, “Heteroaryl derivative, method for producing same, and pharmaceutical composition comprising same as effective component” (VORONOI INC., priority 2019, dated 2024).

target: T1, Ba/F3 cell EGFR Exon20 ins NPH (Homo sapiens, UniProt P00533, INS773NPH); assay: Ba/F3 cell proliferation suppression, EGFR Exon20 ins NPH; type: cell-based; conditions: GI50 class; Ba/F3 cell line with NPH inserted at Exon20 of EGFR; 72 hours
T1 construct: expressed in transfected cells; host or cells: Ba/F3
Outline: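 After 72 h compound exposure (twelve 3-fold steps, 0.3 nM–50 um final), live cells were measured by CellTiter-Glo luminescence and growth expressed as % of control to derive GI50. Cells were seeded at 3000–5000 per well a day earlier; Ba/F3 medium contained IL-3; three repeats.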

Row | SMILES | Ba/F3 (NPH) Activity
1 | C=CC(=O)Nc1cc(Nc2cc(N3OCC[C@@H]3c3cccc(Cl)c3Cl)ncn2)c(OC)cc1N1C[C@H]2C[C@@H]1CO2 [compound 523, N-(2-((1R,4R)-2-oxa-5-azabicyclo[2.2.1]heptane-5-yl)-5-((6-((R)-3-(2,3-dichlorophenyl)isoxazolidine-2-yl)pyrimidine-4-yl)amino)-4-methoxyphenyl) acrylamide] | A (GI50 < 50 nM)
2 | C=CC(=O)Nc1cc(Nc2cc(N3OCC[C@@H]3c3ccc(Cl)cc3F)ncn2)c(OC)cc1N1CCC(N2CCOCC2)CC1 [compound 455, N-(5-((6-((R)-3-(4-chloro-2-fluorophenyl)isoxazolidine-2-yl)pyrimidine-4-yl)amino)-4-methoxy-2-(4-morpholinopiperidine-1-yl)phenyl)acrylamide] | A (GI50 < 50 nM)
3 | C=CC(=O)Nc1cc(Nc2cc(N3OCC[C@@H]3c3cccc(Cl)c3)ncn2)c(OC)cc1N1CCC(N2CCN(C3CCC3)CC2)CC1 [Example 185, N-(5-((6-((R)-3-(3-chlorophenyl)isoxazolidine-2-yl)pyrimidine-4-yl)amino)-2-(4-(4-cyclobutylpiperazine-1-yl)piperidine-1-yl)-4-methoxyphenyl) acrylamide] | A (GI50 < 50 nM)
4 | C=CC(=O)Nc1cc(Nc2cc(N3OCC[C@@H]3c3cc(F)cc(Cl)c3)ncn2)c(OC)cc1N1CCN(C2COC2)CC1 [compound 597, N-(5-((6-((R)-3-(3-chloro-5-fluorophenyl)isoxazolidine-2-yl)pyrimidine-4-yl)amino)-4-methoxy-2-(4-(oxetane-3-yl)piperazine-1-yl)phenyl) acrylamide] | A (GI50 < 50 nM)
5 | C=CC(=O)Nc1cc(Nc2cc(N3OCC[C@@H]3c3cc(F)cc(F)c3)ncn2)c(OC)cc1N1CCC(N2CCN(C3CC3)[C@H](C)C2)CC1 [Example 109, N-(2-(4-((R)-4-cyclopropyl-3-methylpiperazine-1-yl)piperidine-1-yl)-5-((6-((R)-3-(3,5-difluorophenyl)isoxazolidine-2-yl)pyrimidine-4-yl)amino)-4-methoxyphenyl) acrylamide] | A (GI50 < 50 nM)
6 | C=CC(=O)Nc1cc(Nc2cc(N3OCC[C@@H]3c3cccc(C#N)c3)ncn2)c(OC)cc1N1CCC(N2CCN(C3CC3)[C@@H](C)C2)CC1 [Example 125, N-(5-((6-((R)-3-(3-cyanophenyl)isoxazolidine-2-yl)pyrimidine-4-yl)amino)-2-(4-((S)-4-cyclopropyl-3-methylpiperazine-1-yl)piperidine-1-yl)-4-methoxyphenyl) acrylamide] | A (GI50 < 50 nM)
7 | C=CC(=O)Nc1cc(Nc2cc(N3OCC[C@@H]3c3ccc(C)nc3)ncn2)c(OC)cc1N1CCC(N2CCN(C(C)=O)CC2)CC1 [Example 232, N-(2-(4-(4-acetylpiperazine-1-yl)piperidine-1-yl)-4-methoxy-5-((6-((R)-3-(6-methylpyridine-3-yl)isoxazolidine-2-yl)pyrimidine-4-yl)amino)phenyl) acrylamide] | B (50 nM ≤ GI50 < 500 nM)
8 | C=CC(=O)Nc1cc(Nc2cc(N3OCC[C@@H]3c3ccc(F)cc3F)ncn2)c(OC)cc1N(C)CCN(C)C [compound 350, N-(5-((6-((R)-3-(2,4-difluorophenyl)isoxazolidine-2-yl)pyrimidine-4-yl)amino)-2-((2-(dimethylamino)ethyl)(methyl)amino)-4-methoxyphenyl) acrylamide] | A (GI50 < 50 nM)
9 | C=CC(=O)Nc1cc(Nc2cc(N3OCC[C@@H]3c3ccc(Cl)cc3F)ncn2)c(OC)cc1N1CCC(N2CCN(CC)CC2)CC1 [compound 409, N-(5-((6-((R)-3-(4-chloro-2-fluorophenyl)isoxazolidine-2-yl)pyrimidine-4-yl)amino)-2-(4-(4-ethylpiperazine-1-yl)piperidine-1-yl)-4-methoxyphenyl) acrylamide] | A (GI50 < 50 nM)
10 | C=CC(=O)Nc1cc(Nc2cc(N3OCC[C@@H]3c3cccc(Cl)c3)ncn2)c(OC)cc1N1CCOCC1 [compound 467, N-(5-((6-((R)-3-(3-chlorophenyl)isoxazolidine-2-yl)pyrimidine-4-yl)amino)-4-methoxy-2-morpholinophenyl) acrylamide] | A (GI50 < 50 nM)
11 | C=CC(=O)Nc1cc(Nc2cc(N3OCC[C@@H]3c3c(F)ccc(F)c3F)ncn2)c(OC)cc1N1CCC(N2CCN(C3CCC3)CC2)CC1 [Example 194, N-(2-(4-(4-cyclobutylpiperazine-1-yl)piperidine-1-yl)-4-methoxy-5-((6-((R)-3-(2,3,6-trifluorophenyl)isoxazolidine-2-yl)pyrimidine-4-yl)amino)phenyl)acrylamide] | A (GI50 < 50 nM)
12 | C=CC(=O)Nc1cc(Nc2cc(N3OCC[C@@H]3c3cc(F)cc(F)c3)ncn2)c(OC)cc1N1CC(N2CCN(C3CC3)CC2)C1 [compound 588, N-(2-(3-(4-cyclopropylpiperazine-1-yl)azetidine-1-yl)-5-((6-((R)-3-(3,5-difluorophenyl)isoxazolidine-2-yl)pyrimidine-4-yl)amino)-4-methoxyphenyl) acrylamide] | B (50 nM ≤ GI50 < 500 nM)
13 | C=CC(=O)Nc1cc(Nc2cc(N3OCC[C@@H]3c3ccc(F)c(F)c3)ncn2)c(OC)cc1N1CCC(N2CCN(C(C)C)CC2)CC1 [compound 501, N-(5-((6-((R)-3-(3,4-difluorophenyl)isoxazolidine-2-yl)pyrimidine-4-yl)amino)-2-(4-(4-isopropylpiperazine-1-yl)piperidine-1-yl)-4-methoxyphenyl) acrylamide] | A (GI50 < 50 nM)

Next, values leading:

Row | Ba/F3 (NPH) Activity | SMILES
14 | A (GI50 < 50 nM) | C=CC(=O)Nc1cc(Nc2cc(N3OCC[C@@H]3Cc3cccc(Cl)c3Cl)ncn2)c(OC)cc1N1CCC(N2CCN(C(C)C)CC2)CC1 [compound 1015, N-(5-((6-((S)-3-(2,3-dichlorobenzyl)isoxazolidine-2-yl)pyrimidine-4-yl)amino)-2-(4-(4-isopropylpiperazine-1-yl)piperidine-1-yl)-4-methoxyphenyl) acrylamide]
15 | A (GI50 < 50 nM) | C=CC(=O)Nc1cc(Nc2cc(N3OCC[C@@H]3Cc3cccc(F)c3)ncn2)c(OC)cc1N1CCN(C)CC1 [compound 991, N-(5-((6-((S)-3-(3-fluorobenzyl)isoxazolidine-2-yl)pyrimidine-4-yl)amino)-4-methoxy-2-(4-methylpiperazine-1-yl)phenyl)acrylamide]
16 | A (GI50 < 50 nM) | C=CC(=O)Nc1cc(Nc2cc(N3OCC[C@@H]3c3ccc(Cl)c(Cl)c3)ncn2)c(OC)cc1N(C)CCN(C)C [compound 669, N-(5-((6-((R)-3-(3,4-dichlorophenyl)isoxazolidine-2-yl)pyrimidine-4-yl)amino)-2-((2-(dimethylamino)ethyl)(methyl)amino)-4-methoxyphenyl) acrylamide]
17 | A (GI50 < 50 nM) | C=CC(=O)Nc1cc(Nc2cc(N3OCC[C@@H]3c3ccc(F)c(Cl)c3)ncn2)c(OC)cc1N1CCN(C2CC2)CC1 [compound 725, N-(5-((6-((R)-3-(3-chloro-4-fluorophenyl)isoxazolidine-2-yl)pyrimidine-4-yl)amino)-2-(4-cyclopropylpiperazine-1-yl)-4-methoxyphenyl) acrylamide]
18 | A (GI50 < 50 nM) | C=CC(=O)Nc1cc(Nc2cc(N3OCC[C@@H]3c3cccc(F)c3F)ncn2)c(OC)cc1N1CCC(N2CCN(C)CC2)CC1 [compound 921, N-(5-((6-((R)-3-(2,3-difluorophenyl)isoxazolidine-2-yl)pyrimidine-4-yl)amino)-4-methoxy-2-(4-(4-methylpiperazine-1-yl)piperidine-1-yl)phenyl) acrylamide]
19 | A (GI50 < 50 nM) | C=CC(=O)Nc1cc(Nc2cc(N3OCC[C@@H]3c3cccc(OC)c3)ncn2)c(OC)cc1N1CCC(N2C[C@@H](C)O[C@@H](C)C2)CC1 [compound 727, N-(2-(4-((2S,6R)-2,6-dimethylmorpholino)piperidine-1-yl)-4-methoxy-5-((6-((R)-3-(3-methoxyphenyl)isoxazolidine-2-yl)pyrimidine-4-yl)amino)phenyl)acrylamide]
20 | A (GI50 < 50 nM) | C=CC(=O)Nc1cc(Nc2cc(N3OCC[C@@H]3Cc3cccc(Cl)c3F)ncn2)c(OC)cc1N1CCC(N2C[C@H]3C[C@@H]2CO3)CC1 [compound 1021, N-(2-(4-((1R,4R)-2-oxa-5-azabicyclo [2.2.1]heptane-5-yl)piperidine-1-yl)-5-((6-((S)-3-(3-chloro-2-fluorobenzyl)isoxazolidine-2-yl)pyrimidine-4-yl)amino)-4-methoxyphenyl) acrylamide]
21 | A (GI50 < 50 nM) | C=CC(=O)Nc1cc(Nc2cc(N3OCC[C@@H]3Cc3cccc(Cl)c3Cl)ncn2)c(OC)cc1N1CCC(N2CCO[C@H](C)C2)CC1 [compound 1011, N-(5-((6-((S)-3-(2,3-dichlorobenzyl)isoxazolidine-2-yl)pyrimidine-4-yl)amino)-4-methoxy-2-(4-((R)-2-methylmorpholino)piperidine-1-yl)phenyl) acrylamide]
22 | A (GI50 < 50 nM) | C=CC(=O)Nc1cc(Nc2cc(N3OCC[C@@H]3Cc3ccccc3)ncn2)c(OC)cc1N1C[C@H]2C[C@@H]1CN2CC [compound 949, N-(5-((6-((S)-3-benzylisoxazolidine-2-yl)pyrimidine-4-yl)amino)-2-((1R,4R)-5-ethyl-2,5-diazabicyclo [2.2.1]heptane-2-yl)-4-methoxyphenyl) acrylamide]
23 | A (GI50 < 50 nM) | C=CC(=O)Nc1cc(Nc2cc(N3OCC[C@@H]3c3ccc(F)c(Cl)c3F)ncn2)c(OC)cc1N1CC[C@@H](N(C)C)C1 [compound 599, N-(5-((6-((R)-3-(3-chloro-2,4-difluorophenyl)isoxazolidine-2-yl)pyrimidine-4-yl)amino)-2-((R)-3-(dimethylamino)pyrolidine-1-yl)-4-methoxyphenyl) acrylamide]
24 | A (GI50 < 50 nM) | C=CC(=O)Nc1cc(Nc2cc(N3OCC[C@@H]3c3ccc(Cl)c(Cl)c3)ncn2)c(OC)cc1N1CCC(N2CCN(C)CC2)CC1 [compound 681]
